In ChEMBL document CHEMBL1201862, “PubChem BioAssay data set” (2004) one finds AC50 and IC50 data, which are given here for nine compounds.

Data set [1] is described as follows: OVCAR8 cell viability loss – plate reader, dry powder samples, PAX8 project, dose response (AID 743197). To be noted: OVCAR-8. The class given is functional, cell-based.
The target in data set [2] is Paired box protein Pax-8 (Homo sapiens, UniProt Q06710). In words: PAX8 transcriptional activity inhibition in RMG-I – RMG-I cells, luciferase, cherry-pick, dose response (AID 687027).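 Also: luciferase reporter driven by Pax8 target thyroperoxidase promoter measured by SteadyGlo luminescence.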 In kind it is functional, cell-based.
In data set [3] the target is NAD-dependent protein deacylase sirtuin-5, mitochondrial (Homo sapiens, UniProt Q9NXA8). In words: blockers of sirtuin-5 peptide desuccinylation – biochemical, fluorescence imaging, cherry-pick, set 6, dose response (AID 720597).
Data set [4] in a line: IGROV1 cell killing – plate reader, dry powder samples, PAX8 inhibitor project, dose response (AID 743043). The class given is functional, cell-based. The settings on record: IGROV-1.
Data set [5] in a line: OVCAR-3 cell viability loss – plate reader, dry powder samples, PAX8 inhibitor project, dose response (AID 743044). In kind it is functional, cell-based.
The nature of data set [6]: general cell-killing toxicity readout – plate reader, dry powder samples, cytotoxicity control for PAX8 inhibitor project, dose response (AID 743021). The class given is functional, cell-based.
Data set [7] deals with T1, Matrix metalloproteinase-14 (Homo sapiens, UniProt P50281). As to the kind of experiment: SAR confirmation of uHTS hits for a small molecule inhibitors of MT1-MMP activation in a fluorescence assay. The class given is functional.
Data set [8] deals with T1, Matrix metalloproteinase-14. In words: Dose Response confirmation of uHTS hits for a small molecule inhibitors of MT1-MMP activation in a fluorescence assay set 1. The class given is functional.
Data set [9] addresses Cytochrome P450 2D6 (Homo sapiens, UniProt P10635).
A short description of data set [10]: cells.
For data set [11], the target named is Protein-tyrosine kinase 2-beta (Homo sapiens, UniProt Q14289).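 Also: potency of inhibitors of PYK2 kinase phosphorylation of poly-GT substrate.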
The target of data set [12] is Cytochrome P450 2C9 (Homo sapiens, UniProt P11712).
For data set [13], the target named is Major prion protein (Homo sapiens, UniProt P04156). The class given is functional, cell-based.
For data set [14], the target named is Kappa-type opioid receptor (Homo sapiens, UniProt P41145). As to the kind of experiment: kappa opioid receptor antagonism potency – cell-based, fluorescence, dose response, late-stage follow-up (AID 652032). In kind it is functional.
The subject of data set [15] is Vero. In words: viability loss in Vero cells – cell-based, plate reader, cherry-pick samples, cytotoxicity control, dose response (AID 687020). In kind it is functional. The settings on record: Chlorocebus sabaeus.
A short description of data set [16]: toxicity toward immortalized ovarian surface epithelium – cell-based, plate reader, dry powder samples, cytotoxicity control for PAX8 inhibitor project, dose response (AID 743045). The class given is functional.
Data set [17] can be described thus: T. cruzi growth inhibition in host cells, dose response, cell-based, plate reader, dry powder, set 2 (AID 652275). The class given is functional.
Data set [18] in a line: mouse embryonic fibroblast toxicity – cell-based, plate reader, dry powder, set 2, cytotoxicity control, dose response (AID 652280). The class given is functional. To be noted: NIH3T3.
The nature of data set [19]: cytotoxicity in MITF-independent A375 cells – cell-based, CellTiter-Glo luminescence, dry powder, set 4, counter-screen for MITF inhibitor project, dose response (AID 624364).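 Also: A375 melanoma cells are MITF independent so this is a counter screen.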 The class given is functional. The settings on record: A-375.
The nature of data set [20]: viability loss in MITF-independent A375 cells – cell-based, CellTiter-Glo luminescence, dry powder, set 2, counter-screen for MITF inhibitor project, dose response (AID 624489).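 Also: actives are compounds lowering A375 viability meaning general cytotoxicity.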 To be noted: A-375. The class given is functional. In general terms: Cellular ATP, detected with luciferase, serves as a proxy for viable cell number.
Data set [21] can be described thus: A549 cell cytotoxicity, dose response, cytotoxicity control, plate reader, cherry-pick, antagonist series (AID 743412). In kind it is functional, cell-based.
Data set [22] in a line: toxicity toward HepG2 liver cells – cell-based, plate reader, cherry-pick, antagonist series, cytotoxicity control, dose response (AID 743416). In kind it is functional.
Data set [23] can be described thus: viability loss in HEK293 cells – cell-based, plate reader, cherry-picked samples, cytotoxicity control, dose response (AID 743446). In kind it is functional.
Data set [24] can be described thus: inhibition of bursicon-driven LGR2 cAMP signaling – cell-based, HEK293, CRE-luciferase reporter, cherry pick, dose response (AID 743342). The class given is functional. A general note: Reporter assays use an easily measured gene product as a stand-in for the process of interest.

Molecules are shown by their SMILES. Activity calls are given as the source filed them.

Consider `C[C@@H]1CCCCO[C@H](CN(C)Cc2ccc(C(F)(F)F)cc2)[C@@H](C)CN([C@@H](C)CO)C(=O)c2cc(NS(=O)(=O)c3ccccc3)ccc2O1`, for which the AC50 in data set [1] is 67.5 µM (active); in data set [2], 4.17 µM (active); in data set [3], 23.5 µM (active).

Turning to `C[C@@H]1CCCCO[C@H](CN(C)Cc2ccc(Cl)c(Cl)c2)[C@@H](C)CN([C@@H](C)CO)C(=O)c2cc(NS(=O)(=O)c3ccccc3)ccc2O1`, the AC50 is 44.6 µM (active) in data set [4], 5 µM (active) in data set [2], 21.2 µM (active) in data set [5] and 2.38 µM (active) in data set [6].

`CCn1c(=O)c(=O)[nH]c2cc(C(=O)NC3CCCc4ccccc43)ccc21` (stereo not drawn): the IC50 in [7] was 29.1 µM (inactive); in [8] it was 26.7 µM (inactive).

As for `CCc1nc(SCC(=O)NNC(=O)C2CCCCC2)c2ccccc2n1`, the AC50 result in data set [9] and in data set [12] was “inconclusive” in each case. Also, the IC50 was > 138 µM (inactive) in data set [10], > 69.5 µM (not active) in data set [11] and 1.18 µM (active) in data set [13].

`COC(=O)c1cc(Br)cnc1N1CCC(OC2CCCCC2O)CC1` (stereo not drawn): the IC50 in data set [14] is > 50 µM (inactive).

Turning to `C[C@@H]1CCCCO[C@H](CN(C)Cc2ccc(C(F)(F)F)cc2)[C@H](C)CN([C@@H](C)CO)C(=O)c2cc(NC(=O)c3ccccc3)ccc2O1`, the AC50 is 17.8 µM (active) in [1]; 19.1 µM (active) in data set [2]; 33.2 µM (active) in data set [5]; 28.7 µM (active) in data set [15]; 42.4 µM (active) in data set [16].

Consider `O=C(C1CC1)N1CCCCN2[C@@H](CO)[C@H](c3ccc(-c4cccc(F)c4)cc3)[C@@H]2C1`, for which the results for the AC50 in data set [17] and in [18] were 0.312 µM (active) and 26.7 µM (active), respectively.

Take `C=CCNC1=C(N(C)C(C)=O)C(=O)c2ccccc2C1=O`: the results for the half-maximal activity concentration (AC50) in data set [19] and in [20] were 8.92 µM (active) and 2.59 µM (active), respectively.

In the case of `C[C@H]1CCCCO[C@@H](CN(C)C(=O)Nc2ccc(C(F)(F)F)cc2)[C@@H](C)CN([C@@H](C)CO)C(=O)c2cc(NC(=O)CCC(F)(F)F)ccc2O1`, the AC50 in data set [21] was 31 µM (active); in [22] it was > 52 µM (inactive); in data set [23], > 52 µM (inactive); in data set [24], 4.55 µM (active).

For orientation: AC50 means the midpoint of the concentration-response curve, whichever way the signal moves. What is called IC50 is the concentration at which inhibition is half-maximal.
